In ChEMBL document CHEMBL5241075, “Advancement of chimeric hybrid drugs to cure malaria infection: An overview with special emphasis on endoperoxide pharmacophores” (Eur J Med Chem, 2021):
≈ marks a conversion by molar mass, not a printed value.

Columns and labels:
[1] = system: HeLa; test: Antiproliferative activity against human HeLa cells assessed as cell growth inhibition; type: functional, cell-based; conditions: Homo sapiens, HeLa
[2] = system: Plasmodium falciparum; test: Antiplasmodial activity against Plasmodium falciparum W2; type: functional, organism-based
[3] = system: Hemozoin; test: Inhibition of Beta-hematin in Plasmodium falciparum
[4] = system: Plasmodium falciparum; test: Antimalarial activity against erythrocytic stage chloroquine sensitive Plasmodium falciparum 3D7 infected in mouse assessed as reduction in parasitemia at 43 mg/kg/day, po qd measured after 4 days by Giemsa staining based analysis relative to control; type: functional; set-up: scale not given: the % may be the effect or the level left; conditions: time 4 day
[5] = system: Plasmodium yoelii nigeriensis; test: Antiplasmodial activity against Plasmodium yoelii nigeriensis infected in sc dosed mouse assessed as reduction in parasitemia; type: functional; conditions: for ED50 / ED90: Plasmodium yoelii
[6] = system: Plasmodium falciparum; test: Antiplasmodial activity against Plasmodium falciparum TM91C235; type: functional, organism-based
[7] = system: Plasmodium falciparum; test: Antimalarial activity against erythrocytic stage chloroquine sensitive Plasmodium falciparum W2 infected in mouse assessed as reduction in parasitemia at 43 mg/kg/day, po qd measured after 4 days by Giemsa staining based analysis relative to control; type: functional; set-up: scale not given: the % may be the effect or the level left; conditions: time 4 day
[8] = system: Plasmodium falciparum; test: Antimalarial activity against erythrocytic stage chloroquine sensitive Plasmodium falciparum 3D7 infected in mouse assessed as reduction in parasitemia at 15 mg/kg/day, po qd measured after 4 days by Giemsa staining based analysis relative to control; type: functional; set-up: scale not given: the % may be the effect or the level left; conditions: time 4 day
[9] = system: Plasmodium falciparum; test: Antiplasmodial activity against chloroquine resistant Plasmodium falciparum by HRP2 ELISA analysis; type: functional, organism-based
[10] = system: Plasmodium vinckei; test: Antimalarial activity against chloroquine resistant Plasmodium vinckei infected in po dosed swiss mouse assessed as reduction in parasitemia; type: functional
[11] = system: Plasmodium vinckei petteri; test: Antimalarial activity against chloroquine sensitive Plasmodium vinckei petteri infected in po dosed swiss mouse assessed as reduction in parasitemia; type: functional
[12] = system: Plasmodium berghei; test: Antiplasmodial activity against Plasmodium berghei infected in mouse assessed as reduction in parasitemia at 65 mg/kg, sc measured after 4 days post treatment relative to control; type: functional; set-up: scale not given: the % may be the effect or the level left; conditions: time 4 day
[13] = system: Plasmodium falciparum; test: Antiplasmodial activity against Plasmodium falciparum 3D7; type: functional, organism-based
[14] = system: Plasmodium berghei; test: Antiplasmodial activity against Plasmodium berghei infected in mouse assessed as reduction in parasitemia by measuring survival rate at 35 microg/kg, sc measured after 41 days of post infection relative to control; type: functional; conditions: 984 h, dose 35 µg/kg, time 41 day
[15] = system: Plasmodium berghei; test: Antiplasmodial activity against Plasmodium berghei infected in mouse assessed as reduction in parasitemia at 35 microg/kg, sc measured after 4 days post treatment relative to control; type: functional; set-up: scale not given: the % may be the effect or the level left; conditions: dose 35 µg/kg, time 4 day
[16] = system: Plasmodium falciparum; test: Antiplasmodial activity against Plasmodium falciparum K1; type: functional, organism-based; conditions: Plasmodium falciparum, K1; read-out: EC50
[17] = system: Plasmodium falciparum; test: Antiplasmodial activity against Plasmodium falciparum DD2; type: functional, organism-based
[18] = system: Plasmodium vinckei; test: Antimalarial activity against Plasmodium vinckei infected in po dosed mouse assessed as reduction in parasitemia relative to control; type: functional; set-up: scale not given: the % may be the effect or the level left
[19] = system: Plasmodium falciparum; test: Antiplasmodial activity against Plasmodium falciparum FcM29; type: functional, organism-based
[20] = system: Plasmodium vinckei; test: Antimalarial activity against Plasmodium vinckei infected in po dosed mouse assessed as reduction in parasitemia; type: functional
[21] = system: Plasmodium falciparum; test: Antimalarial activity against chloroquine resistant Plasmodium falciparum FcB1; type: functional, organism-based
[22] = system: Plasmodium yoelii nigeriensis; test: Antiplasmodial activity against Plasmodium yoelii nigeriensis infected in po dosed mouse assessed as reduction in parasitemia; type: functional
[23] = system: Plasmodium vinckei; test: Antimalarial activity against Plasmodium vinckei infected in ip dosed mouse assessed as reduction in parasitemia relative to control; type: functional; set-up: scale not given: the % may be the effect or the level left
[24] = system: Plasmodium falciparum; test: Antiplasmodial activity against Plasmodium falciparum Nigerian; type: functional, organism-based
[25] = system: Plasmodium vinckei; test: Antimalarial activity against Plasmodium vinckei infected in ip dosed mouse assessed as reduction in parasitemia; type: functional
[26] = system: Plasmodium falciparum; test: Antiplasmodial activity against Plasmodium falciparum F-32; type: functional, organism-based
[27] = Inhibition of Plasmodium falciparum falcipain-2
[28] = system: Plasmodium falciparum; test: Antiplasmodial activity against Plasmodium falciparum gametocytes assessed as inhibition of gametocyte activation by [3H]hypoxanthine incorporation assay; type: functional, organism-based
[29] = system: Plasmodium falciparum; test: Antimalarial activity against erythrocytic stage chloroquine sensitive Plasmodium falciparum W2 infected in mouse assessed as reduction in parasitemia at 4 mg/kg/day, po qd measured after 4 days by Giemsa staining based analysis relative to control; type: functional; set-up: scale not given: the % may be the effect or the level left; conditions: time 4 day
[30] = system: Plasmodium falciparum; test: Antiplasmodial activity against Plasmodium falciparum NF54; type: functional, organism-based
[31] = system: Plasmodium falciparum; test: Antimalarial activity against erythrocytic stage chloroquine sensitive Plasmodium falciparum W2 infected in mouse assessed as reduction in parasitemia at 54 mg/kg/day, po qd measured after 4 days by Giemsa staining based analysis relative to control; type: functional; set-up: scale not given: the % may be the effect or the level left; conditions: time 4 day
[32] = system: Plasmodium falciparum; test: Antimalarial activity against erythrocytic stage chloroquine sensitive Plasmodium falciparum 3D7 infected in mouse assessed as reduction in parasitemia at 4 mg/kg/day, po qd measured after 4 days by Giemsa staining based analysis relative to control; type: functional; set-up: scale not given: the % may be the effect or the level left; conditions: time 4 day
[33] = system: Plasmodium falciparum; test: Antimalarial activity against erythrocytic stage chloroquine sensitive Plasmodium falciparum 3D7 infected in mouse assessed as reduction in parasitemia at 63 mg/kg/day, po qd measured after 4 days by Giemsa staining based analysis relative to control; type: functional; set-up: scale not given: the % may be the effect or the level left; conditions: time 4 day
[34] = system: Plasmodium falciparum; test: Antimalarial activity against chloroquine resistant Plasmodium falciparum W2; type: functional, organism-based
[35] = system: Plasmodium falciparum; test: Antimalarial activity against chloroquine resistant Plasmodium falciparum PaloAlto; type: functional, organism-based
[36] = system: Plasmodium falciparum; test: Antimalarial activity against chloroquine resistant Plasmodium falciparum FcB1 Colombia; type: functional, organism-based
[37] = system: Plasmodium falciparum; test: Antimalarial activity against chloroquine sensitive Plasmodium falciparum D6; type: functional, organism-based
[38] = system: Plasmodium falciparum; test: Antimalarial activity against chloroquine resistant Plasmodium falciparum FcR3 Gambia; type: functional, organism-based
[39] = system: Plasmodium falciparum; test: Antimalarial activity against erythrocytic stage chloroquine sensitive Plasmodium falciparum W2 infected in mouse assessed as reduction in parasitemia at 32 mg/kg/day, po qd measured after 4 days by Giemsa staining based analysis relative to control; type: functional; set-up: scale not given: the % may be the effect or the level left; conditions: time 4 day
[40] = system: Plasmodium falciparum; test: Antimalarial activity against chloroquine sensitive Plasmodium falciparum F32; type: functional, organism-based
[41] = system: Plasmodium falciparum; test: Antimalarial activity against chloroquine resistant Plasmodium falciparum FcM29 Cameron; type: functional, organism-based
[42] = system: Plasmodium falciparum; test: Antimalarial activity against erythrocytic stage chloroquine sensitive Plasmodium falciparum W2 infected in mouse assessed as reduction in parasitemia at 63 mg/kg/day, po qd measured after 4 days by Giemsa staining based analysis; type: functional; set-up: scale not given: the % may be the effect or the level left; conditions: time 4 day

SMILES: CCN(CC)CCCC(C)Nc1ccnc2cc(Cl)ccc12 (stereo unspecified) [CHLOROQUINE]
- IC50 [1]: 8540 nM
- IC90 [2]: 18.6 nM
- IC50 [3]: 1.91 equiv
- Activity [4]: 100%
- CD50 [5]: 7 mg/kg/day
- CD90 [5]: 23 mg/kg/day
- ED50 [5]: 5 mg/kg/day
- ED90 [5]: 23 mg/kg/day
- IC90 [6]: 153 nM
- Activity [7]: 15%
- Activity [8]: 100%
- IC90 [9]: 301 nM
- IC99 [9]: 0.531 µM
- ED100 [10]: >100 mg/kg/day
- ED100 [11]: 16 mg/kg/day

SMILES: C[C@H]1[C@H](OC(=O)CCC(=O)CCNc2ccnc3cc(Cl)ccc23)O[C@@H]2O[C@]3(C)CC[C@H]4[C@H](C)CC[C@@H]1[C@@]24OO3
- Activity [12]: >99%
- EC50 ([13]; read-out: EC50): 4.5 nM
- survival at 0.035 mg/kg [14]: 80%
- Activity [15]: 95.2%
- EC50 [16]: 1.7 nM
- EC50 [17]: 2.3 nM

SMILES: CC(C)C1=C[C@H]2OC3(CCC(NCCNc4cc(Cl)cc5cccnc45)CC3)OO[C@@]2(C)CC1.O=C(O)CC(O)(CC(=O)O)C(=O)O.O=C(O)CC(O)(CC(=O)O)C(=O)O (stereo partly specified)
- Activity [18]: 50%
- IC50 [19]: 4 nM
- ED50 [20]: 18 mg/kg/day
- CD50 [5]: 3 mg/kg/day
- CD90 [5]: 12 mg/kg/day
- ED50 [5]: 2 mg/kg/day
- ED90 [5]: 5 mg/kg/day
- IC50 [21]: 4 nM
- CD50 [22]: 22 mg/kg/day
- CD90 [22]: 44 mg/kg/day
- ED50 ([22]; Plasmodium yoelii): 15 mg/kg/day
- ED90 ([22]; Plasmodium yoelii): 23 mg/kg/day
- Activity [23]: 50%
- IC50 [24]: 4 nM
- ED50 [25]: 5 mg/kg/day
- IC50 [26]: 4 nM

SMILES: CC(C)CN(NC(=O)C1CCC2(CC1)OOC1(OO2)C2CC3CC(C2)CC1C3)c1nc(C#N)ncc1Cl (stereo unspecified)
- IC50 [2]: 9.8 nM
- IC50 [27]: 3.4 nM
- IC50 [13]: 9.8 nM

SMILES: C[C@H]1[C@H](OC(=O)CCC(=O)O)O[C@@H]2O[C@@]3(C)CC[C@H]4[C@H](C)CC[C@@H]1[C@@]24OO3 [ARTESUNATE]
- IC50 [28]: 300000 nM
- Activity [29]: 89%
- IC50 [30]: < 5.2 nM
- Activity [31]: 100%
- IC50 [9]: 2.34 nM
- IC90 [9]: 6.46 nM
- IC99 [9]: 0.0195 µM
- Activity [32]: 28%
- ED100 [10]: 100 mg/kg/day
- ED100 [11]: 32 mg/kg/day

SMILES: CC1(C)COC(C2CCC(NC3CCC(Nc4ccnc5cc(Cl)ccc45)CC3)CC2)OO1 (stereo unspecified)
- Activity [33]: 100%
- IC50 [34]: 15 nM
- IC50 [35]: 15 nM
- IC50 [36]: 24 nM
- IC50 [37]: 7 nM
- IC50 [38]: 12 nM
- Activity [39]: 77%
- IC50 [40]: 13 nM
- IC50 [41]: 10 nM
- IC50 [9]: 19.8 nM
- IC90 [9]: 29.3 nM
- IC99 [9]: 0.0448 µM
- MIC [9]: 0.0472 µM (≈ 0.0224 µg/mL)
- ED100 [10]: 30 mg/kg/day
- ED100 [11]: 32 mg/kg/day
- Activity [42]: 96%
